In article PMC10336507 (Heliyon, 2023):

Biological target: M. SssI MTase (Spiroplasma monobiae, UniProt P15840)
Assay: coupled fluorescence turn-off DNA methylation assay
Assay type: biochemical

M. SssI MTase, sequence (P15840 whole entry): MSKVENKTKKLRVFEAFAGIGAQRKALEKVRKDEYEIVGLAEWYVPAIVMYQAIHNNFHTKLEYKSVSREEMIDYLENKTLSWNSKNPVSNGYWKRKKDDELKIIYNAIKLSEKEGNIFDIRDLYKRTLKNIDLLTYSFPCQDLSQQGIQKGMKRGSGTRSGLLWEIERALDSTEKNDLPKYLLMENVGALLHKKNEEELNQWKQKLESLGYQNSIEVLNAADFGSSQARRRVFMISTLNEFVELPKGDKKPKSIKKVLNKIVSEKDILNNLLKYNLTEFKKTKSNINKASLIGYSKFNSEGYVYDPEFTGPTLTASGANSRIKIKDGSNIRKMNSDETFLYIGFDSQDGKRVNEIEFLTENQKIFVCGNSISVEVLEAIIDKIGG

Nc1ncn([C@@H]2O[C@H](CO)[C@@H](O)[C@H]2O)c(=O)n1 [5-Aza, 5-Azacytidine]
IC50: 3.76 µM
